In patent publication US20230312687A1, “CELL-FREE ANIMAL COLLAGEN, METHODS OF PRODUCTION AND USES THEREOF” (ALEPH FARMS LTD., priority 2020, published 2023):
“Also recorded” adds a separate entry of the source.

Assays:
Format in all cases: cell-based
[1] = test system: Bovine LOX (lysyl oxidase) gene; assay: RT-PCR analysis of LOX mRNA level after siRNA transfection; conditions: 20 nM siRNA, bovine stromal cells, 24 hours after transfection, n=2
Protocol: The Bovine LOX (lysyl oxidase) gene (Gene ID: 280841) was knockdown using siRNA. 20,000 bovine stromal cells/cm^2 were transfected with 20 nM of siRNA sequence against LOX (5′[…]3′; SEQ ID NO:1) or a scramble sequence (5′[…]3′; SEQ ID NO:2) as control, using Dharmacon DharmaFECT 1 transfection reagent. 24 hours after transfection the cells were lysed for RNA extraction. The RNA was reverse transcribed to cDNA and 5 ng/μl were subjected to RT-PCR with the following primers: […]

[2] = test system: bovine embryonic fibroblasts; assay: Secreted soluble collagen in growth medium (QuickZyme soluble collagen assay, Sirius Red)
Protocol: (§1) 35,000 bovine embryonic fibroblast cells/cm^2 were seeded in standard medium. 24 hours later the medium was changed to basal medium and the soluble collagen was measured on day 6 or 7. Likewise, 20,000 stromal cells/cm^2 were seeded in basal medium. 24 hours later the cells were transfected with siRNA targeted to LOX or a scramble sequence as a control. After 24 hours the medium was changed to fresh basal medium. The soluble collagen levels were measured daily from day 3 until day 7.
(§2) Secreted soluble collagen was measured using QuickZyme soluble collagen assay which is based on binding of the dye Sirius Red to collagen. Following binding of the dye, the collagen-dye complex precipitates, resulting in a colored pellet. The pellet is re-suspended in an alkaline solution and the absorbance is measured in a plate reader.
(§3) • 1. Conditioned culture medium is collected and centrifuged for 10 minutes at 1,500 g (at 4° C.) to remove cell debris. • 2. The supernatant is diluted in a dilution buffer placed in the assay microplate (V-shaped plate). • 3. The collagen standard solution is diluted in serial dilutions in the dilution buffer and placed in the assay microplate (V-shaped plate). • 4. Sirius red dye is added to the samples and to the standards and mixed. • 5. The plate is centrifuged for 60 minutes at 3000×g at 4° C. to precipitate the pellet. • 6. The pellets are washed and resuspended.
(§4) The resuspended colored solution is transferred to the reading microplate (flat bottom) and read at 540 nm.
35,000 bovine embryonic fibroblast cells/cm^2 were expanded in standard medium (DMEM+10% Fetal Bovine Serum+1% penicillin\streptomycin). 24 hours after seeding their medium was changed to basal medium with 50 μM GM6001.
(§5) 35,000 bovine embryonic fibroblast cells/cm^2 were seeded in standard medium (DMEM+10% Fetal Bovine Serum+1% penicillin\streptomycin). 24 hours after seeding the medium was changed to basal medium with different concentration (0-500 μM) of GM6001, a matrix metalloprotease (MMP) inhibitor which prevents C-terminal cleavage of the procollagen. After 4 days, the medium was collected from the cultures and measured for soluble collagen levels. Insoluble collagen was collected from the culture dish its level was measured.

[3] = test system: bovine embryonic fibroblasts; assay: Insoluble collagen from culture dish (Total Collagen Assay kit, hydroxyproline); conditions: different concentrations of GM6001 (0-500 μM in text, 0-200 μM in legend), 4 days
Protocol: 24 hours after seeding the medium was changed to basal medium with different concentration (0-500 μM) of GM6001, a matrix metalloprotease (MMP) inhibitor which prevents C-terminal cleavage of the procollagen.
• 1. Wash the cells once with PBS.
as §5

[4] = test system: bovine stromal cells; assay: Secreted soluble collagen in growth medium of stromal cells (QuickZyme soluble collagen assay)
Protocol: as §1, §2
as §3, with “The plate is centrifuged for 60 minutes at 3000×g at 4° C. to precipitate the pellet. • 6. The pellets are washed and resuspended.” left out
as §4

Row | Molecule | reduction of LOX expression (mRNA) relative to scramble control [1] [%] | amount of secreted soluble collagen for 10^6 bovine embryonic fibroblasts ([2]; 50 μM GM6001) | increase of soluble collagen in the growth medium vs basal medium ([2]; 50 μM GM6001, 72 hours) | amount of soluble collagen in the growth medium ([2]; Basal medium + 50 μM GM6001, 72 hours, N=6, basal medium alone 375) [μg/10^6 cells] | secreted soluble collagen in the growth medium (in words) ([2]; basal medium supplemented with GM6001, bovine embryonic fibroblasts) | maximum soluble collagen level ([2]; basal medium with 50 μM GM6001, measured daily, maximum on the 7th day) [μg\10^6 cells] | soluble collagen level with increasing GM6001 concentration ([2]; different concentrations of GM6001, 4 days, increase up to about 50 μM) | insoluble collagen level with increasing GM6001 concentration [3] | soluble collagen levels in the growth medium, LOX silencing combined with GM6001 ([4]; LOX siRNA-treated bovine stromal cells, basal medium with 50 μM GM6001) | secreted soluble collagen in the growth medium (in words) ([4]; basal medium supplemented with GM6001, bovine stromal cells)
1 | 5′GCUGAUAACCAGACGGCACUU3′ (listed as RNA, chemistry not given here) [siRNA sequence against LOX] | 80 | – | – | – | – | – | – | – | – | –
2 | CNC(=O)[C@H](Cc1c[nH]c2ccccc12)NC(=O)[C@@H](CC(=O)NO)CC(C)C [GM6001, Ilomastat] | – | about 1 mg | more than 2 folds | 825 | enhanced | ~900 | enriches; also recorded: increased | decrease; also recorded: decreasing | increased; also recorded: enhanced | enhanced
